# From US4997829A, “Penem compounds, and use thereof” (Suntory Limited, priority 1985, dated 1991)
# Like-named read-outs stand apart in the source and are kept apart here.
# Legend:
# S. aureus FAD209P JC-1 = assay: Minimum inhibitory concentration (MIC), agar plate dilution method; type: cell-based; conditions: 10^6 CFU inoculated, 37° C., 18 hours; for MIC: Staphylococcus aureus, FAD209PJC1
# Description: (§1) With regard to the novel compounds obtained according to this invention and the compounds of Reference Examples, their minimum inhibitory concentrations (MIC) were determined by the agar plate dilution method in accordance with the MIC measuring standard method of The Chemotherapeutic Society of Japan, whereby 10^6 colony forming units were inoculated and the minimal concentration to inhibit the microbial growth after inclubation at 37° C. for 18 hours were determined, as shown as μg/ml in Table.
# M. luteus ATCC9341 = assay: as above; type: cell-based; conditions: 10^6 CFU inoculated, 37° C., 18 hours; for MIC: Micrococcus luteus, ATCC9341
# Description: as §1
# B. fragilis GM7000 = assay: as above; type: cell-based; conditions: 10^6 CFU inoculated, 37° C., 18 hours; for MIC: Bacteroides fragilis, GM7000
# Description: as §1
# K. pneumoniae PC1602 = assay: as above; type: cell-based; conditions: 10^6 CFU inoculated, 37° C., 18 hours; for MIC: Klebsiella pneumoniae, PC1602
# Description: as §1
# Ent. cloacae 963 = assay: as above; type: cell-based; conditions: 10^6 CFU inoculated, 37° C., 18 hours; for MIC: Enterobacter cloacae, 963
# Description: as §1
# Pr. vulgaris GN7919 = assay: as above; type: cell-based; conditions: 10^6 CFU inoculated, 37° C., 18 hours; for MIC: Proteus vulgaris, GN7919
# Description: as §1
# E. coli W3630/Rms212 = assay: as above; type: cell-based; conditions: for MIC: Escherichia coli, W3630/RMS212, 18 h, read-out: minimum inhibitory concentration (MIC)
# Description: as §1
# Pr. morganii IFO3848 = assay: as above; type: cell-based; conditions: 10^6 CFU inoculated, 37° C., 18 hours; for MIC: Morganella morganii, IFO3848
# Description: as §1
# F. varium ATCC8501 = assay: as above; type: cell-based; conditions: 10^6 CFU inoculated, 37° C., 18 hours; for MIC: Fusobacterium varium, ATCC8501
# Description: as §1
# Al. fecalis IFO13111 = assay: as above; type: cell-based; conditions: 10^6 CFU inoculated, 37° C., 18 hours
# Description: as §1
# E. coli NIHI JC-2 = assay: as above; type: cell-based; conditions: 10^6 CFU inoculated, 37° C., 18 hours; for MIC: Escherichia coli, NIHIJC2
# Description: as §1
# B. fragilis V-280-1 = assay: as above; type: cell-based; conditions: 10^6 CFU inoculated, 37° C., 18 hours; for MIC: Bacteroides fragilis, V2801
# Description: as §1
# E. coli W3630/Rms213 = assay: as above; type: cell-based; conditions: for MIC: Escherichia coli, W3630/RMS213, 18 h, read-out: minimum inhibitory concentration (MIC)
# Description: as §1
# Ser. marcescens IMA 1136 = assay: as above; type: cell-based; conditions: 10^6 CFU inoculated, 37° C., 18 hours; for MIC: Serratia marcescens, IMA1136
# Description: as §1
# E. coli KC-14 [1] = assay: Therapeutic effect against experimental infection in mice (ED50); type: in vivo, E. coli; ICR strain male mice; conditions: Escherichia coli, 144 h, survival after 6 days, Probit method, read-out: ED50
# Description: (§2) Out of the novel compound obtained according to this invention, SUN 4435 was selected to carry out a treatment experiment with infected animals. As an animal, there were employed ICR strain male mice (5-weeks aged, with an average body weight of 29.1 g), which were infected intraperitoneally with a test microorganism, S. aureus Smith or E. coli KC-14, and 24 hours later, treated by subcutaneous or oral application of SUN 4435 or SUN 5555. ED50 values were determined from the survival rates found after 6 days in accordance with the Probit method.
# E. coli KC-14 [2] = assay: Therapeutic effect against experimental infection of mice (survival); type: in vivo, E. coli; ICR strain male mice
# Description: (§3) Out of the novel compounds obtained according to this invention, SUN 4435 was selected to carry out a treatment experiment with infected animals. As an animal, there were employed ICR strain male mice (5-weeks aged, with a body weight of 23 to 27 g), which were inoculated intraperitoneally with S. aureus Smith or E. coli KC-14 and 2 hours later, treated by subcutaneous or oral application of SUN 4435.
# Acute toxicity test = type: in vivo; conditions: mouse, in vivo, iv, route not restated (follows intravenous paragraph), read-out: 50% lethal dose (LD50)
# Description: Out of the novel compounds obtained according to this invention, SUN 4435 and SUN 5555 were selected to carry out an acute toxicity test. As an animal, there were employed ICR strain mice (4-weeks aged), which were treated by oral and intravenous application of the compounds.
# S. aureus Smith [3] = assay: Therapeutic effect against experimental infection in mice (ED50); type: in vivo, S. aureus; ICR strain male mice; conditions: Staphylococcus aureus, po, 144 h, survival after 6 days, Probit method, read-out: ED50
# Description: as §2
# S. aureus Smith [4] = assay: Therapeutic effect against experimental infection of mice (survival); type: in vivo, S. aureus; ICR strain male mice
# Description: as §3
# [5] = 10^6 CFU inoculated, 37° C., 18 hours
SMILES,MIC (S. aureus FAD209P JC-1) [µg/mL],MIC (M. luteus ATCC9341) [µg/mL],MIC (B. fragilis GM7000) [µg/mL],MIC (K. pneumoniae PC1602) [µg/mL],MIC (Ent. cloacae 963) [µg/mL],MIC (Pr. vulgaris GN7919) [µg/mL],MIC (E. coli W3630/Rms212) [µg/mL],MIC (Pr. morganii IFO3848) [µg/mL],MIC (F. varium ATCC8501) [µg/mL],MIC (Al. fecalis IFO13111) [µg/mL],MIC (E. coli NIHI JC-2) [µg/mL],MIC (B. fragilis V-280-1) [µg/mL],MIC (E. coli W3630/Rms213) [µg/mL],MIC (Ser. marcescens IMA 1136) [µg/mL],further results
"C[C@@H](O)[C@@H]1C(=O)N2C(C(=O)[O-])=C([C@H]3CCC(=O)O3)S[C@@H]12.[K+] [SUN 4325, Potassium (1'R, 2""R, 5S, 6R)-6-(1'-hydroxyethyl)-2[2""-(5""-oxo)oxolanyl]penem-3-carboxylate]",–,–,–,–,–,–,–,–,–,–,–,–,–,–,minimum inhibitory concentration (MIC) (S. aureus FAD209P JC-1): 3.13 µg/mL; minimum inhibitory concentration (MIC) (M. luteus ATCC9341): 1.56 µg/mL; minimum inhibitory concentration (MIC) (B. fragilis GM7000): 3.13 µg/mL; minimum inhibitory concentration (MIC) (K. pneumoniae PC1602): 1.25 µg/mL; minimum inhibitory concentration (MIC) (Ent. cloacae 963): > 50 µg/mL; minimum inhibitory concentration (MIC) (Pr. vulgaris GN7919): > 50 µg/mL; minimum inhibitory concentration (MIC) (E. coli W3630/Rms212; [5]): > 50 µg/mL; minimum inhibitory concentration (MIC) (Pr. morganii IFO3848): 50 µg/mL; minimum inhibitory concentration (MIC) (F. varium ATCC8501): > 12.5 µg/mL; minimum inhibitory concentration (MIC) (Al. fecalis IFO13111): 12.5 µg/mL; minimum inhibitory concentration (MIC) (E. coli NIHI JC-2): 25 µg/mL; minimum inhibitory concentration (MIC) (B. fragilis V-280-1): > 12.5 µg/mL; minimum inhibitory concentration (MIC) (E. coli W3630/Rms213; [5]): 25 µg/mL; minimum inhibitory concentration (MIC) (Ser. marcescens IMA 1136): 50 µg/mL
"C[C@@H](O)[C@H]1C(=O)N2C(C(=O)O)=C([C@H]3CCCO3)S[C@H]12 [SUN 4435, Potassium (1'R, 2""R, 5R, 6S)-6-(1'-hydroxyethyl)-2-(2""-tetrahydrofuranyl)penem-3-carboxylate]",0.05,0.05,< 0.025,0.1,3.13,0.39,1.56,6.25,0.2,0.78,0.78,0.2,0.78,3.13,"ED50 (E. coli KC-14 [1]; KC14, po, oral): 11 mg/kg; ED50 (E. coli KC-14 [1]; KC14, sc, subcutaneous): 1.5 mg/kg; survival (E. coli KC-14 [2]; oral, 12.5 mg/kg or more, 1.5×10^5 CFU/head): every heads were found to survive; survival (E. coli KC-14 [2]; subcutaneous, 1.5 mg/kg, 3.1×10^5 CFU): three mice per five survived; survival (E. coli KC-14 [2]; subcutaneous, 2.6 mg/kg or more, 3.1×10^5 CFU): every heads were found to survive; LD50 (Acute toxicity test; female mice): 456 mg/kg; LD50 (Acute toxicity test; male mice): 480 mg/kg; ED50 (S. aureus Smith [3]): 5.9 mg/kg; survival (S. aureus Smith [4]; oral, 3.9 mg/kg, 3.6×10^5 CFU/head): three heads out of five survived; survival (S. aureus Smith [4]; oral, 9.6 mg/kg or more, 3.6×10^5 CFU/head): every heads were found to survive; survival (S. aureus Smith [4]; subcutaneous, 1.6 mg/kg or more, 5.7×10^5 CFU): every heads were found to survive"
"C[C@@H](O)[C@H]1C(=O)N2C(C(=O)O)=C([C@H]3CCOC3)S[C@H]12 [SUN 4725, Potassium (1'R, 3""S, 5R, 6S)-6-(1'-hydroxyethyl)-2-(11-tetrahydrofuranyl)penem-3-carboxylate]",0.05,0.1,0.05,0.1,6.25,0.78,3.13,12.5,0.39,0.78,1.56,0.05,1.56,6.25,–
"C[C@@H](O)[C@H]1C(=O)N2C(C(=O)O)=C([C@@H]3CCOC3)S[C@H]12 [SUN 4726, Potassium (1'R, 3""R, 5R, 6S)-6-(1'-hydroxyethyl)-2-(3""-tetrahydrofuranyl)penem-3-carboxylate]",0.05,0.05,0.05,0.05,6.25,1.56,3.13,12.5,0.1,1.56,1.56,0.05,1.56,12.5,–
"C[C@@H](O)[C@H]1C(=O)N2C(C(=O)O)=C([C@@H]3CCCCO3)S[C@H]12 [SUN 4740, Potassium (1'R, 2""S, 5R, 6S)-6-(1'-hydroxyethyl)-2-(2""-tetrahydropyranyl)penem-3-carboxylate]",0.1,0.05,0.78,3.13,> 50,1.25,> 50,25,6.25,6.25,> 50,0.78,> 50,> 50,–
"C[C@@H](O)[C@H]1C(=O)N2C(C(=O)O)=C([C@H]3CCCCO3)S[C@H]12 [SUN 4741, Potassium (1'R, 2""R, 5R, 6S)-6-(1'-hydroxyethyl)-2-(2""-tetrahydropyranyl)penem-3-carboxylate]",0.1,0.1,0.1,0.1,25,3.13,12.5,3.13,0.39,0.78,6.25,0.1,6.25,25,–
"C[C@@H](O)[C@H]1C(=O)N2C(C(=O)O)=C([C@@H]3COCCO3)S[C@H]12 [SUN 4770, Potassium (1'R, 2""S, 5R, 6S)-6-(1'-hydroxyethyl)-2-(2""-para-dioxanyl)penem-3-carboxylate]",0.2,0.1,0.39,0.78,25,6.25,12.5,25,3.13,6.25,1.56,0.39,12.5,50,–
"C[C@@H](O)[C@H]1C(=O)N2C(C(=O)O)=C([C@H]3COCCO3)S[C@H]12 [SUN 4771, Potassium (1'R, 2""R, 5R, 6S)-6-(1'-hydroxyethyl)-2-(2""-para-dioxanyl)penem-3-carboxylate]",0.05,0.1,0.025,0.05,3.13,0.78,1.56,6.25,0.78,0.78,1.56,0.05,0.73,6.25,–
